Active and inactive are the calls of the source.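 Rule for the calls: active = combined score above 50, rising as EC50 falls below 10 µM and growth at top dose drops; inactive = the rest.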 Peptide text beside a SMILES is read from it. * marks the point of attachment. Cbz = O=C(OCc1ccccc1)*
Legend:
Assay in all cases: growth inhibition of S. cerevisiae strain panel, profiling panel, 26S proteasome disassembly project, secondary panel, OD600 (AID 2125)
Conditions in all cases: growth OD600, 6-8 h
YE4006 = tested on: YE4006
YE4012 = tested on: YE4012
YE3955 = tested on: YE3955
YE3957 = tested on: YE3957
YE3963 = tested on: YE3963
YE3965 = tested on: YE3965
YE4010 = tested on: YE4010
YE4005 = tested on: YE4005
YE3962 = tested on: YE3962
[1] = at 100 µM, hits give low values

Row | SMILES | EC50 (YE4006) | percent response (growth) (YE4012; [1]) | percent response (growth) (YE3955; [1]) | percent response (growth) (YE3957; [1]) | percent response (growth) (YE3963; [1]) | percent response (growth) (YE3965; [1]) | EC50 (YE4010) | percent response (growth) (YE4005; [1]) | EC50 (YE3962) | percent response (growth) (YE4006; [1]) | EC50 (YE4012) | EC50 (YE3955) | EC50 (YE3957) | EC50 (YE3963) | EC50 (YE3965) | percent response (growth) (YE4010; [1]) | EC50 (YE4005) | percent response (growth) (YE3962; [1])
1 | CC(=O)N1C(=O)C(=C2C=C(C)OC(C)=C2)c2ccccc21 | 36 µM (inactive) | 96.9% (inactive) | 70.6% (inactive) | 100% (inactive) | 63.5% (inactive) | 34.3% (inactive) | 0.13 µM | 70.5% (inactive) | 0.16 µM | – | – | – | – | – | – | – | – | –
2 | CC(C)C[C@@H](C=O)NC(=O)[C@H](CC(C)C)NC(=O)[C@H](CC(C)C)NC(=O)OCc1ccccc1 (Cbz-Leu-Leu-Leu-aldehyde) | – | – | – | – | – | – | – | – | – | 63.7% (inactive) | 1550 µM (inactive) | 0.9 µM | 2.86 µM | 0.93 µM | 1.05 µM | 75.5% (inactive) | 1.24 µM | 47.5% (inactive)
